According to patent publication US11111237B2, “Bicyclic compound and use thereof” (SK BIOPHARMACEUTICALS CO., LTD., priority 2019, dated 2021):
Structures can show the parent of a compound that is named as a salt.

target: PRMT5-MEP50 enzyme complex (Homo sapiens (Human), UniProt O14744); experiment: PRMT5 enzyme activity in vitro assay (methylation of histone H4R3, ELISA absorbance at 450 nm); type: biochemical; conditions: SAM, histone H4 peptide, room temperature 2 hours, 8 points from 10 μM to 0.128 nM
In short: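 IC50 was derived from ELISA absorbance at 450 nm, using primary and HRP antibodies against H4R3 methylation on immobilised histone H4 peptide (residues 1-20). Compounds (10 μM to 0.128 nM, 8 points, 1:5) were incubated 2 h at room temperature with the PRMT5-MEP50 complex and SAM, diluted to 5 μg/mL and 2 μM respectively.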

Sequence of PRMT5-MEP50 enzyme complex (O14744 2-637): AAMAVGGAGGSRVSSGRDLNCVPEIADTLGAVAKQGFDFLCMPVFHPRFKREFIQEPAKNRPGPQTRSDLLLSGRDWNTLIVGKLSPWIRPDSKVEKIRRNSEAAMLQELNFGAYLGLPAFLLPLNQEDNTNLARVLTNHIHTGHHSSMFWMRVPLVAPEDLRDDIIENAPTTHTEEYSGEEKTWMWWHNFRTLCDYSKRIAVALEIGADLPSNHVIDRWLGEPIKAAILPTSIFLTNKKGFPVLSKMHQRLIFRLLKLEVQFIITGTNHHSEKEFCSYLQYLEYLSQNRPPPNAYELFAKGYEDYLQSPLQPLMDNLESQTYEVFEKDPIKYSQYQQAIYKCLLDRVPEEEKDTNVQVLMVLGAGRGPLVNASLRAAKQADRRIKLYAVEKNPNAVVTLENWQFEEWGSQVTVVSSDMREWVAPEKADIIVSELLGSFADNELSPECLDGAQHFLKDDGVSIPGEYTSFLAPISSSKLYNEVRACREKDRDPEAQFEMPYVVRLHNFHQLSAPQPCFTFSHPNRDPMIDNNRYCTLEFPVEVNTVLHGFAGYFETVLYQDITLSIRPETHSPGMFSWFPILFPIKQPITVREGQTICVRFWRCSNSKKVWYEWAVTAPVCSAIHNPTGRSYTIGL
Sequence of PRMT5-MEP50 enzyme complex (Q9BQA1 2-342 partner): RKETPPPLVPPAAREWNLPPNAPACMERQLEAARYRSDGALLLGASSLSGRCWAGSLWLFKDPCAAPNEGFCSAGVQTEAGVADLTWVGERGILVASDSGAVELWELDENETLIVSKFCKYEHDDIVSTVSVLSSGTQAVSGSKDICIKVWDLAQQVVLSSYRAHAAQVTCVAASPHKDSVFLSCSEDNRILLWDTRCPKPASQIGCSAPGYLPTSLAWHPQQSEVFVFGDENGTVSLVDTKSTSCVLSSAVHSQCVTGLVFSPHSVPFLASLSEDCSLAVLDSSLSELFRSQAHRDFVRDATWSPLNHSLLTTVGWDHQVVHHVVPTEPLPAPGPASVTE

IC50 | SMILES
100 to 1000 nM | O=C1c2ccc(OC3CCN(CCF)CC3)cc2OCCN1C[C@H](O)CN1CCc2ccccc2C1 [Example 163, 4-[(2R)-3-(3,4-dihydro-1H-isoquinolin-2-yl)-2-hydroxy-propyl]-8-[[1-(2-fluoroethyl)-4-piperidyl]oxy]-2,3-dihydro-1,4-benzoxazepin-5-one]
100 to 1000 nM | CC(c1ccc2c(c1)OCCN(C[C@H](O)CN1CCc3ccccc3C1)C2=O)N1CC2(COC2)C1 (stereo partly drawn) [Example 222, 4-[(2R)-3-(3,4-dihydro-1H-isoquinolin-2-yl)-2-hydroxy-propyl]-8-[1-(2-oxa-6-azaspiro[3.3]heptan-6-yl)ethyl]-2,3-dihydro-1,4-benzoxazepin-5-one]
1 to 100 nM | O=C1c2ccc(OC(F)(F)F)cc2CCCN1C[C@H](O)CN1CCc2ccccc2C1 [Example 6, 2-[(2R)-3-(3,4-dihydro-1H-isoquinolin-2-yl)-2-hydroxy-propyl]-7-(trifluoromethoxy)-4,5-dihydro-3H-2-benzazepin-1-one]
1 to 100 nM | O=C1c2ccc(OCc3ccc(F)cn3)cc2OCCN1C[C@H](O)CN1CCc2ccccc2C1 [Example 63, 4-[(2R)-3-(3,4-dihydro-1H-isoquinolin-2-yl)-2-hydroxy-propyl]-8-[(5-fluoro-2-pyridyl)methoxy]-2,3-dihydro-1,4-benzoxazepin-5-one]
100 to 1000 nM | CC(=O)N1CCC(Oc2ccc3c(c2)OCCN(C[C@H](O)CN2CCc4ccccc4C2)C3=O)C1 (stereo partly drawn) [Example 80, 8-(1-acetylpyrrolidin-3-yl)oxy-4-[(2R)-3-(3,4-dihydro-1H-isoquinolin-2-yl)-2-hydroxy-propyl]-2,3-dihydro-1,4-benzoxazepin-5-one]
100 to 1000 nM | O=C1c2ccc(CN3CCC(O)C3)cc2OCCN1C[C@H](O)CN1CCc2ccccc2C1 (stereo partly drawn) [Example 35, 4-[(2R)-3-(3,4-dihydro-1H-isoquinolin-2-yl)-2-hydroxy-propyl]-8-[(3-hydroxypyrrolidin-1-yl)methyl]-2,3-dihydro-1,4-benzoxazepin-5-one]
1 to 100 nM | CN1CCN(C[C@H](O)CN2CCc3ccccc3C2)C(=O)c2ccc(OCc3ccncc3F)cc21 [Example 134, 4-[(2R)-3-(3,4-dihydro-1H-isoquinolin-2-yl)-2-hydroxy-propyl]-8-[(3-fluoro-4-pyridyl)methoxy]-1-methyl-2,3-dihydro-1,4-benzodiazepin-5-one]
100 to 1000 nM | C[C@@H]1CN(C[C@H](O)CN2CCc3ccccc3C2)C(=O)c2ccc(OC3CCN(C[C@@H](C)O)CC3)cc2O1 [Example 268, (2R)-4-[(2R)-3-(3,4-dihydro-1H-isoquinolin-2-yl)-2-hydroxy-propyl]-8-[[1-[(2R)-2-hydroxypropyl]-4-piperidyl]oxy]-2-methyl-2,3-dihydro-1,4-benzoxazepin-5-one]
100 to 1000 nM | O=C1c2ccc(CN3CCn4cccc4C3)cc2OCCN1C[C@H](O)CN1CCc2ccccc2C1 [Example 249, 4-[(2R)-3-(3,4-dihydro-1H-isoquinolin-2-yl)-2-hydroxypropyl]-8-(3,4-dihydro-1H-pyrrolo[1,2-a]pyrazin-2-ylmethyl)-2,3-dihydro-1,4-benzoxazepin-5-one]
1 to 100 nM | O=C1c2ccc(OCc3ccncc3)cc2OCCN1C[C@H](O)CN1CCc2ccccc2C1 [Example 57, 4-[(2R)-3-(3,4-dihydro-1H-isoquinolin-2-yl)-2-hydroxy-propyl]-8-(4-pyridylmethoxy)-2,3-dihydro-1,4-benzoxazepin-5-one]
100 to 1000 nM | O=C1CCC(Oc2ccc3c(c2)OCCN(C[C@H](O)CN2CCc4ccccc4C2)C3=O)CN1 (stereo partly drawn) [Example 76, 4-[(2R)-3-(3,4-dihydro-1H-isoquinolin-2-yl)-2-hydroxy-propyl]-8-[(6-oxo-3-piperidyl)oxy]-2,3-dihydro-1,4-benzoxazepin-5-one]
100 to 1000 nM | CN1CCN(C[C@H](O)CN2CCc3ccccc3C2)C(=O)c2ccc(CC3CCCCC3)cc21 [Example 117, 8-(cyclohexylmethyl)-4-[(2R)-3-(3,4-dihydro-1H-isoquinolin-2-yl)-2-hydroxy-propyl]-1-methyl-2,3-dihydro-1,4-benzodiazepin-5-one]
100 to 1000 nM | C[C@@H]1CN(C[C@H](O)CN2CCc3ccccc3C2)C(=O)c2ccc(OC3CCN(CCO)C[C@H]3F)cc2O1 (stereo partly drawn) [Example 255, (2R)-4-[(2R)-3-[(2R)-3-(3,4-dihydro-1H-isoquinolin-2-yl)-2-hydroxy-propyl]-8-[[(3R,4R)-3-fluoro-1-(2-hydroxyethyl)-4-piperidyl]oxy]-2-methyl-2,3-dihydro-1,4-benzoxazepin-5-one dihydrochloride]
100 to 1000 nM | CC(=O)N1CC[C@H](Oc2ccc3c(c2)N(C)CCN(C[C@H](O)CN2CCc4ccccc4C2)C3=O)C1 [Example 124, 8-[(3S)-1-acetylpyrrolidin-3-yl]oxy-4-[(2R)-3-(3,4-dihydro-1H-isoquinolin-2-yl)-2-hydroxy-propyl]-1-methyl-2,3-dihydro-1,4-benzodiazepin-5-one]
100 to 1000 nM | CCN1CC2(CC(Oc3ccc4c(c3)OCCN(C[C@H](O)CN3CCc5ccccc5C3)C4=O)C2)C1 [Example 172, 4-[(2R)-3-(3,4-dihydro-1H-isoquinolin-2-yl)-2-hydroxy-propyl]-8-[(2-ethyl-2-azaspiro[3.3]heptan-6-yl)oxy]-2,3-dihydro-1,4-benzoxazepin-5-one]
1 to 100 nM | O=C1c2ccc(CN3CCC(F)CC3)cc2OCCN1C[C@H](O)CN1CCc2ccccc2C1 [Example 32, 4-[(2R)-3-(3,4-dihydro-1H-isoquinolin-2-yl)-2-hydroxy-propyl]-8-[(4-fluoro-1-piperidyl)methyl]-2,3-dihydro-1,4-benzoxazepin-5-one]
1 to 100 nM | CN1CCCC(COc2ccc3c(c2)OCCN(C[C@H](O)CN2CCc4ccccc4C2)C3=O)C1 (stereo partly drawn) [Example 107, 4-[(2R)-3-(3,4-dihydro-1H-isoquinolin-2-yl)-2-hydroxy-propyl]-8-[(1-methyl-3-piperidyl)methoxy]-2,3-dihydro-1,4-benzoxazepin-5-one]
1 to 100 nM | O=C1c2ccc(OC3CCN(C(=O)C(F)F)CC3)cc2OCCN1C[C@H](O)CN1CCc2ccccc2C1 [Example 160, 8-[[1-(2,2-difluoroacetyl)-4-piperidyl]oxy]-4-[(2R)-3-(3,4-dihydro-1H-isoquinolin-2-yl)-2-hydroxy-propyl]-2,3-dihydro-1,4-benzoxazepin-5-one]
100 to 1000 nM | O=C1c2ccc(Oc3ncc(F)cn3)cc2OCCN1C[C@H](O)CN1CCc2ccccc2C1 [Example 211, 4-[(2R)-3-(3,4-dihydro-1H-isoquinolin-2-yl)-2-hydroxy-propyl]-8-(5-fluoropyrimidin-2-yl)oxy-2,3-dihydro-1,4-benzoxazepin-5-one]
100 to 1000 nM | CN1CCN(C(=O)c2ccc3c(c2)OCCN(C[C@H](O)CN2CCc4ccccc4C2)C3=O)CC1 [Example 178, 4-[(2R)-3-(3,4-dihydro-1H-isoquinolin-2-yl)-2-hydroxy-propyl]-8-(4-methylpiperazine-1-carbonyl)-2,3-dihydro-1,4-benzoxazepin-5-one]
100 to 1000 nM | COC1CCN(Cc2ccc3c(c2)OCCN(C[C@H](O)CN2CCc4ccccc4C2)C3=O)CC1 [Example 38, 4-[(2R)-3-(3,4-dihydro-1H-isoquinolin-2-yl)-2-hydroxy-propyl]-8-[(4-methoxy-1-piperidyl)methyl]-2,3-dihydro-1,4-benzoxazepin-5-one]
100 to 1000 nM | O=C1c2ccc(OCc3cccnc3)cc2OCCN1C[C@H](O)CN1CCc2ccccc2C1 [Example 56, 4-[(2R)-3-(3,4-dihydro-1H-isoquinolin-2-yl)-2-hydroxy-propyl]-8-(3-pyridylmethoxy)-2,3-dihydro-1,4-benzoxazepin-5-one]
100 to 1000 nM | Cc1ccc2c(c1)OCCN(C[C@H](O)CN1CCc3ccccc3C1)C2=O [Example 10, 4-[(2R)-3-(3,4-dihydro-1H-isoquinolin-2-yl)-2-hydroxy-propyl]-8-methyl-2,3-dihydro-1,4-benzoxazepin-5-one]
100 to 1000 nM | CC1(C)CN(C[C@H](O)CN2CCc3ccccc3C2)C(=O)c2ccc(OC3CCN(CCO)CC3(F)F)nc2O1 (stereo partly drawn) [Example 256, 8-[[3,3-difluoro-1-(2-hydroxyethyl)-4-piperidyl]oxy]-4-[(2R)-3-(3,4-dihydro-1H-isoquinolin-2-yl)-2-hydroxy-propyl]-2,2-dimethyl-3H-pyrido[3,2-f][1,4]oxazepin-5-one]
100 to 1000 nM | CC1CN(C(=O)c2ccc3c(c2)OCCN(C[C@H](O)CN2CCc4ccccc4C2)C3=O)CC(C)O1 (stereo partly drawn) [Example 187, 4-[(2R)-3-(3,4-dihydro-1H-isoquinolin-2-yl)-2-hydroxy-propyl]-8-(2,6-dimethylmorpholin-4-carbonyl)-2,3-dihydro-1,4-benzoxazepin-5-one]
100 to 1000 nM | O=C(c1ccc2c(c1)OCCN(C[C@H](O)CN1CCc3ccccc3C1)C2=O)C1CCCC1 [Example 217, 8-(cyclopentanecarbonyl)-4-[(2R)-3-(3,4-dihydro-1H-isoquinolin-2-yl)-2-hydroxy-propyl]-2,3-dihydro-1,4-benzoxazepin-5-one]
1 to 100 nM | O=C1c2ccc(C#Cc3ccncc3)cc2OCCN1C[C@H](O)CN1CCc2ccccc2C1 [Example 226, 4-[(2R)-3-(3,4-dihydro-1H-isoquinolin-2-yl)-2-hydroxy-propyl]-8-[2-(4-pyridyl)ethynyl]-2,3-dihydro-1,4-benzoxazepin-5-one]

SMILES | IC50
C[C@@H]1CN(C[C@H](O)CN2CCc3ccccc3C2)C(=O)c2ccc(OC3CCN(C)CC3)cc2O1 [Example 143, (2R)-4-[(2R)-3-(3,4-dihydro-1H-isoquinolin-2-yl)-2-hydroxypropyl]-2-methyl-8-[(1-methyl-4-piperidyl)oxy]-2,3-dihydro-1,4-benzoxazepin-5-one] | 100 to 1000 nM
CCN1C2CCC1CC(Oc1ccc3c(c1)OCCN(C[C@H](O)CN1CCc4ccccc4C1)C3=O)C2 (stereo partly drawn) [Example 171, 4-[(2R)-3-(3,4-dihydro-1H-isoquinolin-2-yl)-2-hydroxy-propyl]-8-[(8-ethyl-8-azabicyclo[3.2.1]octan-3-yl)oxy]-2,3-dihydro-1,4-benzoxazepin-5-one] | 1 to 100 nM
